Legend:
[1] = molecular target: T1, 5-HT1A receptor (Homo sapiens, UniProt P08908); assay: cAMP-Glo assay of 5-HT1A activation in +5-HT1A cells (CHO-K1/5-HT1A/Gα15); assay type: cell-based; settings: for 5-HT1A activity from luminescence (cAMP) trend: +5HT1A cell culture, FIG. 14B, 14C; for 5-HT1A binding activity from % cAMP levels trend: +5HT1A cell cultures
T1 construct: host or cells: CHO-K1 stably expressing 5-HT1A and Gα15
T1 sequence (P08908 1-422): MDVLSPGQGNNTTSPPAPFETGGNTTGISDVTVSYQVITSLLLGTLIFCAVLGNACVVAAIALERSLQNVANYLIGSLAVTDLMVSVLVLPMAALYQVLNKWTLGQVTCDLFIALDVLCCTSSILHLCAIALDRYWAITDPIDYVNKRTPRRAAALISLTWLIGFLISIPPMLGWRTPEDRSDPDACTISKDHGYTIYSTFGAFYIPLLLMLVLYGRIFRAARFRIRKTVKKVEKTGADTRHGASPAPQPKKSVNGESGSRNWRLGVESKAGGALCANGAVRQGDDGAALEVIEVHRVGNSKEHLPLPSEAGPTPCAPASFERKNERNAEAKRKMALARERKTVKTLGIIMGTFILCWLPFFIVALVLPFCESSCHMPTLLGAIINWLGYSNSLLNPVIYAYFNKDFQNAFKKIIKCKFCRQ
Text: (§1) CHO-K1/Gα15 (GenScript, M00257) (−5-HT1A) and CHO-K1/5-HT1A/Gα15 (GenScript, M00330) (+5-HT1A) cells lines were used. Briefly, CHO-K1/Gα15 is a control cell line that constitutively expresses Gα15 which is a promiscuous Gq protein. This control cell line lacks any transgene encoding 5-HT1A receptors, but still responds to forskolin; thus, cAMP response to forskolin should be the same regardless of whether or not 5-HT1A agonists are present. Conversely, CHO-K1/5-HT1A/Gα15 cells stably express 5-HT1A receptor in the CHO-K1 host background. […] In +5-HT1A cells, Gα15 may be recruited in place of Gαi/o, which could theoretically dampen cAMP response (Rojas and Fiedler 2016, Front Cell Neurosci 10: 272). […] In contrast, tryptophan is not known to activate 5-HT1A receptors, and was thus used as a negative control. Cells were maintained in complete growth media as recommended by supplier (GenScript) which is constituted as follows: Ham's F12 Nutrient mix (HAM's F12, GIBCO #11765-047) with 10% fetal bovine serum (FBS) (Thermo Scientific #12483020), 200 μg/ml zeocin (Thermo Scientific #R25005) and/or 100 μg/ml hygromycin (Thermo Scientific #10687010). The cells were cultured in a humidified incubator with 37° C. and 5% CO2. Cells maintenance was carried out as recommended by the cell supplier. Briefly, vials with cells were removed from the liquid nitrogen and thawed quickly in 37° C. water bath. Just before the cells were completely thawed the vial's outside was decontaminated by 70% ethanol spray. The cell suspension was then retrieved from the vial and added to warm (37° C.) complete growth media, and centrifuged at 1,000 rpm for 5 minutes. The supernatant was discarded, and the cell pellet was then resuspended in another 10 ml of complete growth media, and added to the 10 cm cell culture dish (Greiner Bio-One #664160). The media was changed every third day until the cells were about 90% confluent. The ˜90% confluent cells were then split 10:1 for maintenance or used for experiment.
The change in intracellular cAMP levels due to the treatment of novel molecules was measured using cAMP-Glo Assay kit (Promega #V1501). Briefly, +5-HT1A cells were seeded on 1-6 columns and base −5-HT1A cells were seeded on columns 7-12 of the white walled clear bottom 96-well plate (Corning, #3903). Both cells were seeded at the density of 30,000 cells/well in 100 μl complete growth media and cultured 24 hrs in humidified incubator at 37° C. and 5% CO2. On the experiment day, the media of cells was replaced with serum/antibiotic free culture media. Then the cells were treated for 20 minutes with test molecules dissolved in induction medium ([…], 500 μM IBMX (isobutyl-1-methylxanthine, Sigma-Aldrich, Cat. #17018) and 100 μM (RO 20-1724, Sigma-Aldrich, Cat. #B8279)). Forskolin induced cAMP formation whereas IBMX and RO 20-1724 inhibited the degradation of cAMP. PKA was added to the lysate, mixed, and subsequently the substrate of the PKA was added. PKA was activated by cAMP, and the amount of ATP consumed due to PKA phosphorylation directly corresponded to cAMP levels in the lysate. Reduced ATP caused reduced conversion of luciferin to oxyluciferin, conferring diminished luminescence as the result of 5-HT1A activation. […] Note that compound (VI) is shown simply as (VI) along the x-axis. For FIGS A-C, error bars represent results of three experiments (n=3).

[2] = test system: CHO-K1/Gα15 (−5-HT1A) cells; assay: cAMP-Glo assay in −5-HT1A control cells (CHO-K1/Gα15); assay type: cell-based; settings: −5HT1A cell cultures (control without 5-HT1A receptor); FIG. 14D-14F
Text: as §1, with “The cell suspension was then retrieved from the vial and added to warm (37° C.) complete growth media, and centrifuged at 1,000 rpm for 5 minutes. The supernatant was discarded, and the cell pellet was then resuspended in another 10 ml of complete growth media, and added to the 10 cm cell culture dish (Greiner Bio-One #664160). The media was changed every third day until the cells were about 90% confluent. The ˜90% confluent cells were then split 10:1 for maintenance or used for experiment.” left out
As 5-HT1A activation inhibits cAMP formation, the agonist activity of test molecules on 5-HT1A was measured via the reduction in the levels of cAMP produced due to application of 4 μM forskolin. The change in intracellular cAMP levels due to the treatment of novel molecules was measured using cAMP-Glo Assay kit (Promega #V1501). […] Reduced ATP caused reduced conversion of luciferin to oxyluciferin, conferring diminished luminescence as the result of 5-HT1A activation. […]

[3] = molecular target: T2, 5-HT2A receptor (Homo sapiens, UniProt P28223); assay: [3H]ketanserin competition binding assay (SPA) on membranes containing 5-HT2A; settings: fixed (1 nM) [3H]ketanserin; FIG. 13B, 13C
T2 construct: purchased PerkinElmer ES-313-M400UA
Text: Evaluation of drug binding is an essential step to characterization of all drug-target interactions (Fang 2012, Exp Opin Drug Discov 7:969). The binding affinity of a drug to a target is traditionally viewed as an acceptable surrogate of its in vivo efficacy (Núñez et al., 2012, Drug Disc Today 17: 10). Competition assays, also called displacement or modulation binding assays, are a common approach to measure activity of a ligand at a target receptor (Flanagan 2016, Methods Cell Biol 132: 191). In these assays, standard radioligands acting either as agonists or antagonists are ascribed to specific receptors. […] After incubation, the samples were read on a MicroBeta 2 Microplate Counter (Perkin Elmer). […] Equilibrium binding constants for ketanserin (Kd) were determined from saturation binding curves using the ‘one-site saturation binding analysis’ method of GraphPad PRISM software (Version 9.2.0). […] Ki values were calculated from the competition displacement data using the competitive binding analysis from GraphPad PRISM software. […] Specific binding in counts per minute (cpm) was calculated by subtracting non-specific binding from total binding. Specific binding (pmol/mg) was calculated from μmol of [^3H]ketanserin bound per mg of protein in the assay. The Kd was calculated by fitting the data with the one-site binding model of PRISM software (version 9.2.0).

[4] = fixed (4 μM) forskolin, decreasing dosages of ligand
[5] = fixed (4 μM) forskolin, decreasing dosages of ligand, FIG. 14D, 14E

T2 sequence (P28223 whole entry): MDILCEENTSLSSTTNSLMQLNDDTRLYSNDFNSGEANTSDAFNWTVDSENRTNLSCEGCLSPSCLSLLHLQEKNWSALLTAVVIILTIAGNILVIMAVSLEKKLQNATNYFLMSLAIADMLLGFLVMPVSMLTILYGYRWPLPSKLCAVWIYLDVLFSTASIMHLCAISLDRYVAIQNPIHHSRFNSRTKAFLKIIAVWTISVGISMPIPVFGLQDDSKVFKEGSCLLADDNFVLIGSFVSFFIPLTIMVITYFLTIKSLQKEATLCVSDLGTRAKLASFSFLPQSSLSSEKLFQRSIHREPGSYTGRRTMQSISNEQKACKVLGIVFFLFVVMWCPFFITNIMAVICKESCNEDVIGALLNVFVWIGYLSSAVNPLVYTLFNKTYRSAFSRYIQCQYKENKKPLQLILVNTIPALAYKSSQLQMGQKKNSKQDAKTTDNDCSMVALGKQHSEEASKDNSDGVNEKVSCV

CN(C)CCc1c[nH]c2ccccc12 [DMT]
5-HT1A activity from luminescence (cAMP) trend [1, 4]: 5-HT1A activity

COc1ccc(C(=O)O)c2[nH]cc(CCN)c12 [compound (VI)]
5-HT1A binding activity from % cAMP levels trend [1, 5]: mild 5-HT1A binding activity | trend of increasing % cAMP levels with decreasing compound [2]: not observed

NCCc1c[nH]c2c(C(=O)O)ccc(O)c12 [compound (VII)]
5-HT1A binding activity from % cAMP levels trend ([1]; decreasing dosages of compound, FIG. 14F): 5-HT1A binding activity | trend of increasing % cAMP levels with decreasing compound [2]: not observed

CN(C)CCc1c[nH]c2cccc(O)c12 [psilocin]
competition binding curve versus [3H]ketanserin [3]: binding

NCCc1c[nH]c2ccc(O)cc12 [serotonin]
5-HT1A binding activity from % cAMP levels trend [1, 5]: 5-HT1A binding activity | trend of increasing % cAMP levels with decreasing compound [2]: not observed

N[C@@H](Cc1c[nH]c2ccccc12)C(=O)O [tryptophan]
5-HT1A activity from luminescence (cAMP) trend [1, 4]: lack of 5-HT1A activity | competition binding curve versus [3H]ketanserin [3]: no binding

From patent US12605361B2, “Carboxylated psilocybin derivatives and methods of using” (Enveric Biosciences Canada Inc., priority 2020, dated 2026)
